In paper PMC8838415, “Discovery of Novel Pleuromutilin Derivatives as Potent Antibacterial Agents for the Treatment of MRSA Infection” (Molecules, 2022):
Converted amounts (≈) assume the structure as drawn.

How the values were obtained:
[1] = test system: methicillin-resistant S. aureus (ATCC 43300); experiment: MIC and MBC, broth dilution, MRSA ATCC 43300; assay type: cell-based; conditions: Staphylococcus aureus
How it was run: (§1)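 Compounds, in 2.5% tween-80/2.5% DMSO, serially diluted in MH broth over 32–0.01 µg/mL with 5 × 10^5 CFU/mL inoculum, triplicates, 22–26 h at 37 °C; MIC = lowest concentration with no visible growth. MBC from plating non-turbid wells on MH agar, further 22–26 h at 37 °C.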

[2] = test system: S. aureus (ATCC 29213); experiment: MIC and MBC, broth dilution, S. aureus ATCC 29213; assay type: cell-based; conditions: Staphylococcus aureus, ATCC29213
How it was run: as §1

[3] = test system: S. aureus (144); experiment: MIC and MBC, broth dilution, S. aureus 144; assay type: cell-based; conditions: Staphylococcus aureus; S. aureus 144 (clinical strain)
How it was run: as §1

[4] = test system: 50S ribosome; experiment: SPR interaction and affinity analysis; assay type: binding, S. aureus ATCC 43300; conditions: 4 °C
How it was run: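 50S subunit purified from S. aureus ATCC 43300 by sucrose cushion/gradient; compounds (100 μM in DMSO) photo-cross-linked on sensor chip. Ribosome flowed at 200–3200 nM in PBST pH 7.4, 4 °C, 600 s association, 360 s dissociation. KD = Kd/Ka from 1:1 Langmuir fit with mass transfer.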

[5] = biological target: CYP3A4 (Homo sapiens, UniProt P08684); experiment: Human liver microsomal CYP3A4 enzyme inhibition; assay type: in vitro ADME; parameters: from tissue; host or cells: human liver microsomes; conditions: human liver microsomes, testosterone substrate
CYP3A4, sequence (P08684 whole entry): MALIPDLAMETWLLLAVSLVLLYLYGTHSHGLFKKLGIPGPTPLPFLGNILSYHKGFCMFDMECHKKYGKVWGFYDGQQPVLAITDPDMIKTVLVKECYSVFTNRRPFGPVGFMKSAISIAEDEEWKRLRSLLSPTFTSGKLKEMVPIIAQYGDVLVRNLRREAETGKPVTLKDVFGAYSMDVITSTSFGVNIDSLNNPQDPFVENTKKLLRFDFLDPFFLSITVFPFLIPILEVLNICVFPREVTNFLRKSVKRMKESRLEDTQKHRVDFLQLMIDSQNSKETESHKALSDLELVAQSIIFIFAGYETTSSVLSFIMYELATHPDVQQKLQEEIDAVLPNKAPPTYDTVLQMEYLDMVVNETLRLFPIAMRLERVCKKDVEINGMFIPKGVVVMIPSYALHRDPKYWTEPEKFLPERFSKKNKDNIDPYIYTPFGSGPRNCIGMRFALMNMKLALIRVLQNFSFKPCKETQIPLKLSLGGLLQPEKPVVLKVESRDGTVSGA
Protocol: The inhibitory effect of compound 9 on CYP3A4 was evaluated according to previous work. The experiments were performed in 96-well plates with a final incubation volume of 100 µL per well. A total of 20 µL of compound 9 was added to 96-well plates, with final concentrations of 0.25, 0.5, 1, 5, 10, and 50 µM. Then, 40 µL of human liver microsomes (final concentration of human liver microsomes was 0.2 mg/mL) and 20 µL of probe substrates (final concentration of testosterone was 20 μmol/L) in 0.1 M Tris (pH = 7.4) were added. After preincubation at 37 °C for 5 min, the reaction started with the addition of 20 µL of NADPH (final concentration is 1 mmol/L). Then, the plate was incubated at 37 °C for 5 min, and then 100 μL acetonitrile (with loratadine used as an internal standard) was added to terminate the reaction. After the reactions were completed, the plates were centrifuged and the supernatants were analyzed for the loratadine and probe substrates testosterone by LC-MS/MS.

MIC [1]: 0.06 mg/L (≈ 0.127 µM)
MIC [2]: 0.25 mg/L (≈ 0.53 µM)
MIC [3]: 0.5 mg/L (≈ 1.06 µM)
Avg kd ([4]; 1:1 Langmuir binding): 7.39e-06 s⁻¹
Kd ([4]; KD = Kd/Ka): 0.0177 µM
melting point: 91 to 93 °C
IC50 [5]: 6.19 µM
IC50 ([5]; converted with MW): 6.19 µM
SMILES: C=C[C@]1(C)C[C@@H](OC(=O)CNc2ccc(F)cc2)[C@]2(C)[C@H](C)CC[C@]3(CCC(=O)[C@H]32)[C@@H](C)[C@@H]1O [Compound 9, 22-(4-Fluoroanilineyl)-22-deoxypleuromutilin]
MBC [1]: 0.25 mg/L (≈ 0.53 µM)
MBC [2]: 0.5 mg/L (≈ 1.06 µM)
MBC [3]: 1 mg/L (≈ 2.12 µM)
Avg ka ([4]; 1:1 Langmuir binding): 417 M⁻¹ s⁻¹
